What is called MIC is the lowest concentration found to suppress growth. Low readings indicate a more susceptible organism, high ones a less susceptible organism.

In assay [1] the test system is Klebsiella pneumoniae. In words: Antimicrobial activity against Klebsiella pneumoniae 602. The format is functional.
Assay [2] concerns Staphylococcus aureus. In words: Antimicrobial activity against Staphylococcus aureus 209P. The format is functional.
A further assay has as its system Proteus vulgaris. In words: Antimicrobial activity against Proteus vulgaris HX19. Type of assay: functional.
The test system of assay [3] is Staphylococcus aureus. Nature of the assay: Antimicrobial activity against Staphylococcus aureus 209p JC1. The format is functional.
Assay [4] deals with Klebsiella pneumoniae. In words: Antimicrobial activity against Klebsiella pneumoniae PCI602. The format is functional.
In assay [5] the test system is Escherichia coli. In words: Antimicrobial activity against Escherichia coli NIHJ JC2. Type of assay: functional.
The subject of assay [6] is Escherichia coli. Nature of the assay: Antimicrobial activity against Escherichia coli NIHJ. Type of assay: functional.
Assay [7] relates to Pseudomonas aeruginosa. In words: Antimicrobial activity against Pseudomonas aeruginosa TU408. Type of assay: functional.
Another assay deals with Proteus mirabilis. In words: Antimicrobial activity against Proteus mirabilis GN2425. Type of assay: functional.
The subject of assay [8] is Pseudomonas aeruginosa. In words: Antimicrobial activity against Pseudomonas aeruginosa 104. The format is functional.
The next assay deals with Salmonella typhi. In words: Antimicrobial activity against Salmonella typhi T58. The format is functional, Salmonella enterica subsp. enterica serovar Typhi. As to conditions: Salmonella enterica.

SMILES strings stand for the structures. In brackets after ≈: the same amount, converted by molar mass.

In the case of `CCn1cc(C(=O)O)c(=O)c2ccc(C)cc21`, the MIC in the assay on Klebsiella pneumoniae [1] was 25 µg/mL (≈ 108 µM); with Staphylococcus aureus [2] it was 200 µg/mL (≈ 865 µM); with Proteus vulgaris it was 12.5 µg/mL (≈ 54.1 µM); in the assay with Staphylococcus aureus [3], over 50 µg/mL; in the assay with Klebsiella pneumoniae [4], 6.25 µg/mL (≈ 27 µM); with Escherichia coli [5], 6.25 µg/mL (≈ 27 µM). In addition, the minimum inhibitory concentration (MIC) with Escherichia coli [6] is 6.25 µg/mL (≈ 27 µM); in the assay with Pseudomonas aeruginosa [7] it was over 50 µg/mL; against Proteus mirabilis, 12.5 µg/mL (≈ 54.1 µM); with Pseudomonas aeruginosa [8], over 200 µg/mL; with Salmonella typhi, 12.5 µg/mL (≈ 54.1 µM).
As to `CCn1cc(C(=O)O)c(=O)c2ccc(Cl)cc21`, the MIC with Klebsiella pneumoniae [1] came to 25 µg/mL (≈ 99.3 µM); with Staphylococcus aureus [2], 50 µg/mL (≈ 199 µM); in the assay with Proteus vulgaris it was 25 µg/mL (≈ 99.3 µM); in the assay with Escherichia coli [6] it was 25 µg/mL (≈ 99.3 µM); with Proteus mirabilis, 12.5 µg/mL (≈ 49.7 µM); with Pseudomonas aeruginosa [8], 200 µg/mL (≈ 795 µM).
For `CCn1cc(C(=O)O)c(=O)c2ccc(C)nc21` [NALIDIXIC ACID], the MIC in the assay on Klebsiella pneumoniae [1] was 6.25 µg/mL (≈ 26.9 µM); in the assay with Staphylococcus aureus [2] it was 100 µg/mL (≈ 431 µM); with Proteus vulgaris it was 1.56 µg/mL (≈ 6.72 µM); in the assay with Staphylococcus aureus [3], over 50 µg/mL; with Klebsiella pneumoniae [4], 6.25 µg/mL (≈ 26.9 µM); against Escherichia coli [5], 6.25 µg/mL (≈ 26.9 µM). Further, the MIC with Escherichia coli [6] was 3.13 µg/mL (≈ 13.5 µM); in the assay with Pseudomonas aeruginosa [7], over 50 µg/mL; in the assay on Proteus mirabilis, 12.5 µg/mL (≈ 53.8 µM); against Pseudomonas aeruginosa [8] it was 200 µg/mL (≈ 861 µM); in the assay with Salmonella typhi, 6.25 µg/mL (≈ 26.9 µM).

The values are drawn from ChEMBL document CHEMBL3576789, “Origins of the Quinolone Class of Antibacterials: An Expanded "Discovery Story"” (2015).
